From PubChem BioAssay (NCI)
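A five-concentration, 48-hour dose response in 96-well plates underlies each endpoint, interpolated linearly between surrounding concentrations. TGI marks complete inhibition of growth.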

Columns and labels:
Test in all cases: DTP human tumour cell line panel, 48 h
[1] = system: CCRF-CEM leukemia
[2] = system: HOP-62 NSCLC
[3] = system: M14 melanoma
[4] = system: MCF7 breast
[5] = system: MDA-N
[6] = system: MOLT-4 leukemia
[7] = system: PC-3 prostate
[8] = system: RPMI-8226 leukemia
[9] = system: RXF 393 renal
[10] = system: SK-OV-3 ovarian
[11] = system: T-47D breast
[12] = system: UACC-257 melanoma
[13] = system: HCT-15 colon

SMILES | TGI [1] | TGI [2] | TGI [3] | TGI [4] | TGI [5] | TGI [6] | TGI [7] | TGI [8] | TGI [9] | TGI [10] | TGI [11] | TGI [12] | TGI [13]
Cc1ccc(S(=O)(=O)N2c3ccccc3[C@H]3CCc4c([nH]c5ccccc45)[C@H]32)cc1 | > 100 µM | > 100 µM | > 100 µM | > 100 µM | > 100 µM | > 100 µM | > 100 µM | > 100 µM | > 100 µM | > 100 µM | > 100 µM | > 100 µM | –
C[C@H]1C(=O)O[C@@H]1[C@H]1COC(C)(C)O1 | > 100 µM | > 100 µM | > 100 µM | > 100 µM | > 100 µM | > 100 µM | > 100 µM | > 100 µM | > 100 µM | > 100 µM | – | > 100 µM | > 100 µM
CCN1CCN(c2nc3ccccc3nc2C(=O)c2ccc(OC)cc2)CC1 | – | 55.5 µM | 37.3 µM | 58.8 µM | > 100 µM | > 100 µM | > 100 µM | 43.7 µM | 43.5 µM | > 100 µM | > 100 µM | 35.3 µM | > 100 µM
COC(=O)C(=O)C(C(=O)C1=NS(=O)(=O)c2cc(S(N)(=O)=O)c(Cl)cc2N1)c1nc2ccc(C(=O)c3ccccc3)cc2[nH]c1=O (stereo not drawn) | > 100 µM | – | > 100 µM | – | – | > 100 µM | – | > 100 µM | > 100 µM | – | – | > 100 µM | > 100 µM
CN1C(=O)CN2C(Cl)(Cl)C2(c2ccccc2F)c2cc([N+](=O)[O-])ccc21 (stereo not drawn) | > 100 µM | > 100 µM | > 100 µM | – | – | 57.2 µM | – | > 100 µM | 66 µM | – | – | > 100 µM | > 100 µM
c1ccc(CSC2(SCc3ccccc3)CCCC2)cc1 | > 10 µM | > 10 µM | > 10 µM | > 10 µM | > 10 µM | > 10 µM | > 10 µM | > 10 µM | > 10 µM | > 10 µM | > 10 µM | – | > 10 µM
Cc1cc(S(=O)(=O)NC(=C(C#N)C#N)[n+]2ccc(N(C)C)cc2)c([S-])cc1Cl | > 100 µM | > 100 µM | > 100 µM | > 100 µM | > 100 µM | > 100 µM | > 100 µM | > 100 µM | > 100 µM | > 100 µM | > 100 µM | > 100 µM | > 100 µM
NC(=O)c1ccc(NS(=O)(=O)c2ccc(N)cc2)nc1 | > 100 µM | > 100 µM | > 100 µM | > 100 µM | > 100 µM | > 100 µM | > 100 µM | > 100 µM | – | > 100 µM | > 100 µM | > 100 µM | > 100 µM
Nc1nc(Cl)cc(NCCCNc2cc(Cl)nc(N)n2)n1 | > 100 µM | > 100 µM | > 100 µM | – | – | > 100 µM | – | > 100 µM | > 100 µM | > 100 µM | – | > 100 µM | > 100 µM
Cc1ccccc1[P+](C)(c1ccccc1C)c1ccccc1C | 0.0867 µM | 71.8 µM | 41.1 µM | > 100 µM | – | – | 55.2 µM | 3.96 µM | > 100 µM | > 100 µM | 12.9 µM | 15.8 µM | 48.2 µM
CN(C)CCCNC(=O)c1cc(NC(=O)c2cc(NS(=O)(=O)c3ccc4c(c3)C(=O)c3ccccc3C4=O)cn2C)cn1C | > 100 µM | > 100 µM | > 100 µM | > 100 µM | > 100 µM | > 100 µM | > 100 µM | > 100 µM | > 100 µM | > 100 µM | > 100 µM | > 100 µM | > 100 µM
CC1=C(C#N)C23C(=O)c4ccccc4C(O)=C2C(=O)C=CC3(O)N1 (stereo not drawn) | > 100 µM | 51 µM | 13 µM | 4.59 µM | 3.95 µM | > 100 µM | 28.7 µM | – | 9.74 µM | > 100 µM | > 100 µM | 4.56 µM | > 100 µM
